For orientation: IC50 means the concentration that gives 50% inhibition. A higher IC50 goes with a need for much substance.

For the first experiment, the target named is T1, PLK1 (Homo sapiens, UniProt P53350).
T1 construct: Full-length, active GST-PLK1 is purified from Sf9 insect cells; made in house; host or cells: Sf9 insect cells
T1 sequence (P53350 whole entry): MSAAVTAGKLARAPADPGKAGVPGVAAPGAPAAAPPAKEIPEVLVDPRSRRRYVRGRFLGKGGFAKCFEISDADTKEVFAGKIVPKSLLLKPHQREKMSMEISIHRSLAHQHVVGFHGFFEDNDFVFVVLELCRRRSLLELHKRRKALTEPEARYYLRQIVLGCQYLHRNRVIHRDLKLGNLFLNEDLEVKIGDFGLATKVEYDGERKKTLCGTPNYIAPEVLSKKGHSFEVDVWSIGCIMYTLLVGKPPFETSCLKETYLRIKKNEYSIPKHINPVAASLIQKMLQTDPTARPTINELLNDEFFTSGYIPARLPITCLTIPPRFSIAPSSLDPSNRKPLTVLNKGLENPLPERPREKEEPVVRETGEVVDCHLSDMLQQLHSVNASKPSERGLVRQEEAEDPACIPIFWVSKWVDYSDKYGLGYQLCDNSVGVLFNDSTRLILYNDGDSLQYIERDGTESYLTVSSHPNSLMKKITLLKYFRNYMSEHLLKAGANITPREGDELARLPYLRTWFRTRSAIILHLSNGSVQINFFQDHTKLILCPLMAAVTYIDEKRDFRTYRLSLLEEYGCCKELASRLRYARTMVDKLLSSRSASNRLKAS
As to the kind of experiment: Biochemical Characterization Assay: HTRF kinase assay, GST-PLK1 phosphorylation of GST-p53. The following applies: GST-PLK1, GST-p53 substrate. The method, then:
Biochemical Characterization Assay
Full-length, active GST-PLK1 is purified from Sf9 insect cells, and full-length GST-p53 is purified from E. coli. Anti-phospho p53 antibody is from Cell Signaling Technology. Europium-conjugated anti-rabbit antibody is from PerkinElmer Life and Analytical Sciences. APC-conjugated anti-GST antibody is from Prozyme.
Six microliters of GST-PLK1 (3 ug/mL) in Kinase Assay Buffer are then added and the solution incubated at 37° C. for 35 minutes. Six microliters of solution containing 43 mM EDTA to stop the reaction and a 1:600 dilution of anti-phospho-p53 antibody in 20 mM HEPES pH 7, 50 mM NaCl, and 0.5 mg/mL BSA (Antibody Binding Buffer) are added and the solution incubated at 37° C. for 30 minutes. […] The HTRF signal is read on an Envision reader from PerkinElmer Life and Analytical Sciences.
(TR-FRET usually uses a lanthanide donor and a delayed reading to cut background.)
`CCOc1cc(C(=O)NC2CCNCC2)ccc1Nc1ncc2c(n1)N(C1CCCC1)CC(F)(F)C(=O)N2C` [Example I-222, 4-(9-cyclopentyl-7,7-difluoro-5-methyl-6-oxo-6,7,8,9-tetrahydro-5H-pyrimido[4,5-b][1,4]diazepin-2-ylamino)-3-ethoxy-N-piperidin-4-yl-benzamide] gave an IC50 of 1 to 50 nM.

As to `CN1CCC(NC(=O)c2ccc(Nc3ncc4c(n3)N(C3CCCC3)CC(F)(F)C(=O)N4C)c(OC(F)(F)F)c2)CC1` [Example I-181, 4-(9-cyclopentyl-7,7-difluoro-5-methyl-6-oxo-6,7,8,9-tetrahydro-5H-pyrimido[4,5-b][1,4]diazepin-2-ylamino)-N-(1-methyl-piperidin-4-yl)-3-trifluoromethoxy-benzamide], the IC50 lay within 1 to 50 nM.

For the compound `CN(C)CCCNC(=O)c1cc(F)c(Nc2ncc3c(n2)N(C2CCCC2)CC(F)(F)C(=O)N3C)cc1F` [Example I-237, 4-(9-cyclopentyl-7,7-difluoro-5-methyl-6-oxo-6,7,8,9-tetrahydro-5H-pyrimido[4,5-b][1,4]diazepin-2-ylamino)-N-(3-dimethylamino-propyl)-2,5-difluoro-benzamide], the IC50 lay within 1 to 50 nM.

`COc1cc(C(=O)NC2CCN(C)CC2)ccc1Nc1ncc2c(n1)N(C1CCCCC1)CC(F)(F)C(=O)N2C` [Example I-247, 4-(9-cyclohexyl-7,7-difluoro-5-methyl-6-oxo-6,7,8,9-tetrahydro-5H-pyrimido[4,5-b][1,4]diazepin-2-ylamino)-3-methoxy-N-(1-methyl-piperidin-4-yl)-benzamide] displayed an IC50 of 1 to 50 nM.

In turn, `CN1C(=O)C(F)(F)CN(C2CCCCC2)c2nc(Nc3ccc(C(=O)O)cc3)ncc21` [Example I-256, 4-(9-cyclohexyl-7,7-difluoro-5-methyl-6-oxo-6,7,8,9-tetrahydro-5H-pyrimido[4,5-b][1,4]diazepin-2-ylamin)-benzoic acid] showed an IC50 of 1 to 50 nM.

`CNC(=O)c1ccc(Nc2ncc3c(n2)N(C2CCCC2)CC(F)(F)C(=O)N3C)c(F)c1` [Example I-228, 4-(9-cyclopentyl-7,7-difluoro-5-methyl-6-oxo-6,7,8,9-tetrahydro-5H-pyrimido[4,5-b][1,4]diazepin-2-ylamino)-3-fluoro-N-methyl-benzamide] came in with an IC50 of 1 to 50 nM.

On to `CN(C)CCNC(=O)c1cc(F)c(Nc2ncc3c(n2)N(C2CCCC2)CC(F)(F)C(=O)N3C)cc1F` [Example I-236, 4-(9-cyclopentyl-7,7-difluoro-5-methyl-6-oxo-6,7,8,9-tetrahydro-5H-pyrimido[4,5-b][1,4]diazepin-2-ylamino)-N-(2-dimethylamino-ethyl)-2,5-difluoro-benzamide], for which the IC50 is 1 to 50 nM.

Take `CNC(=O)c1ccc(Nc2ncc3c(n2)N(C2CCCC2)CC(F)(F)C(=O)N3C)c(C)c1` [Example I-190, 4-(9-cyclopentyl-7,7-difluoro-5-methyl-6-oxo-6,7,8,9-tetrahydro-5H-pyrimido[4,5-b][1,4]diazepin-2-ylamino)-3,N-dimethyl-benzamide]: the IC50 fell in the range of 1 to 50 nM.

On to `CCc1cc(C(=O)NC)ccc1Nc1ncc2c(n1)N(C1CCCC1)CC(F)(F)C(=O)N2C` [Example I-200, 4-(9-cyclopentyl-7,7-difluoro-5-methyl-6-oxo-6,7,8,9-tetrahydro-5H-pyrimido[4,5-b][1,4]diazepin-2-ylamino)-3-ethyl-N-methyl-benzamide], for which the IC50 was in the range of 1 to 50 nM.

`CN1C(=O)C(F)(F)CN(C2CCCC2)c2nc(Nc3ccc(C(=O)NC4CCOCC4)cc3C(F)(F)F)ncc21` [Example I-207, 4-(9-cyclopentyl-7,7-difluoro-5-methyl-6-oxo-6,7,8,9-tetrahydro-5H-pyrimido[4,5-b][1,4]diazepin-2-ylamino)-N-(tetrahydro-pyran-4-yl)-3-trifluoromethyl-benzamide] returned an IC50 of 51 to 500 nM.

The same experiment, now with this note: GST-PLK1, GST-p53 substrate, ATP.
Regarding `COc1cc(C(=O)NCCCN(C)C)ccc1Nc1ncc2c(n1)N(C1CCCC1)CC(F)(F)C(=O)N2` [Example I-154, 4-(9-cyclopentyl-7,7-difluoro-6-oxo-6,7,8,9-tetrahydro-5H-pyrimido[4,5-b][1,4]diazepin-2-ylamino)-N-(3-dimethylamino-propyl)-3-methoxy-benzamide], the IC50 is 500 to 5000 nM.

In the case of `COc1cc(C(=O)NC2CCOCC2)ccc1Nc1ncc2c(n1)N(C1CCCC1)CC(F)(F)C(=O)N2` [Example I-155, 4-(9-cyclopentyl-7,7-difluoro-6-oxo-6,7,8,9-tetrahydro-5H-pyrimido[4,5-b][1,4]diazepin-2-ylamino)-3-methoxy-N-(tetrahydro-pyran-4-yl)-benzamide], the IC50 is over 5000 nM.

In the case of `CN1C(=O)C(F)(F)CN(C2CCC2)c2nc(Nc3ccc(C(=O)O)cc3)ncc21` [Example I-11, 4-(9-cyclobutyl-7,7-difluoro-5-methyl-6-oxo-6,7,8,9-tetrahydro-5H-pyrimido[4,5-b][1,4]diazepin-2-ylamino)-benzoic acid], the IC50 lay within 51 to 500 nM.

`COc1cc(C(=O)N[C@@H]2CCN(C(=O)OCc3ccccc3)C[C@H]2O)ccc1Nc1ncc2c(n1)N(C1CCCC1)CC(F)(F)C(=O)N2C` (racemic) [Example I-54, rac-(3R,4R)-4-[4-(9-cyclopentyl-7,7-difluoro-5-methyl-6-oxo-6,7,8,9-tetrahydro-5H-pyrimido[4,5-b][1,4]diazepin-2-ylamino)-3-methoxy-benzoylamino]-3-hydroxy-piperidine-1-carboxylic acid benzyl ester]: the IC50 lay in the range of 51 to 500 nM.

With `COc1cc(C(=O)N[C@H]2CC[C@@H](NC(=O)OC(C)(C)C)CC2)ccc1Nc1ncc2c(n1)N(C1CCCC1)CC(F)(F)C(=O)N2C` [Example I-97, cis-{4-[4-(9-cyclopentyl-7,7-difluoro-5-methyl-6-oxo-6,7,8,9-tetrahydro-5H-pyrimido[4,5-b][1,4]diazepin-2-ylamino)-3-methoxy-benzoylamino]-cyclohexyl}-carbamic acid tert-butyl ester], the IC50 is 51 to 500 nM.

`CNC(=O)c1ccc(Nc2ncc3c(n2)N(C2CCC2)CC(F)(F)C(=O)N3C)c(OC)c1` [Example I-3, 4-(9-cyclobutyl-7,7-difluoro-5-methyl-6-oxo-6,7,8,9-tetrahydro-5H-pyrimido[4,5-b][1,4]diazepin-2-ylamino)-3-methoxy-N-methyl-benzamide] yielded an IC50 of 1 to 50 nM.

In turn, `CCOCCNC(=O)c1ccc(Nc2ncc3c(n2)N(C2CCCC2)CC(F)(F)C(=O)N3C)c(OC)c1` [Example I-40, 4-(9-cyclopentyl-7,7-difluoro-5-methyl-6-oxo-6,7,8,9-tetrahydro-5H-pyrimido[4,5-b][1,4]diazepin-2-ylamino)-N-(2-ethoxy-ethyl)-3-methoxy-benzamide] displayed an IC50 of 1 to 50 nM.

In turn, `COc1cc(C(=O)NCCCNC(C)C)ccc1Nc1ncc2c(n1)N(C1CCCC1)CC(F)(F)C(=O)N2C` [Example I-46, 4-(9-cyclopentyl-7,7-difluoro-5-methyl-6-oxo-6,7,8,9-tetrahydro-5H-pyrimido[4,5-b][1,4]diazepin-2-ylamino)-N-(3-isopropylamino-propyl)-3-methoxy-benzamide] returned an IC50 of 1 to 50 nM.

Consider `COc1cc(C(N)=O)ccc1Nc1ncc2c(n1)N(C1CCCC1)CC(F)(F)C(=O)N2` [Example I-152, 4-(9-cyclopentyl-7,7-difluoro-6-oxo-6,7,8,9-tetrahydro-5H-pyrimido[4,5-b][1,4]diazepin-2-ylamino)-3-methoxy-benzamide], for which the IC50 fell in the range of 500 to 5000 nM.

`COc1cc(C(=O)NC2CN3CCC2CC3)ccc1Nc1ncc2c(n1)N(C1CCCC1)CC(F)(F)C(=O)N2C` [Example I-106, N—(R)-1-aza-bicyclo[2.2.2]oct-3-yl-4-(9-cyclopentyl-7,7-difluoro-5-methyl-6-oxo-6,7,8,9-tetrahydro-5H-pyrimido[4,5-b][1,4]diazepin-2-ylamino)-3-methoxy-benzamide] came in with an IC50 of 1 to 50 nM.

`COc1cc(C(=O)NN2CCN(C)CC2)ccc1Nc1ncc2c(n1)N(C1CCCC1)CC(F)(F)C(=O)N2C` [Example I-118, 4-(9-cyclopentyl-7,7-difluoro-5-methyl-6-oxo-6,7,8,9-tetrahydro-5H-pyrimido[4,5-b][1,4]diazepin-2-ylamino)-3-methoxy-N-(4-methyl-piperazin-1-yl) benzamide] returned an IC50 of 1 to 50 nM.

As for `COc1cc(C(=O)N[C@H]2CCNC2)ccc1Nc1ncc2c(n1)N(C1CCCC1)CC(F)(F)C(=O)N2C` [Example I-83, S-4-(9-cyclopentyl-7,7-difluoro-5-methyl-6-oxo-6,7,8,9-tetrahydro-5H-pyrimido[4,5-b][1,4]diazepin-2-ylamino)-3-methoxy-N—(S)-pyrrolidin-3-yl-benzamide], the IC50 is 1 to 50 nM.

For the compound `CCCN1C(=O)C(F)(F)CN(C2CCCC2)c2nc(Nc3ccc(C(=O)NC)cc3)ncc21` [Example I-146, 4-(9-cyclopentyl-7,7-difluoro-6-oxo-5-propyl-6,7,8,9-tetrahydro-5H-pyrimido[4,5-b][1,4]diazepin-2-ylamino)-N-methyl-benzamide], the IC50 fell in the range of 500 to 5000 nM.

Compound `COc1cc(C(=O)NCCc2ccc3c(c2)OCO3)ccc1Nc1ncc2c(n1)N(C1CCCC1)CC(F)(F)C(=O)N2C` [Example I-43, N-(2-benzo[1,3]dioxol-5-yl-ethyl)-4-(9-cyclopentyl-7,7-difluoro-5-methyl-6-oxo-6,7,8,9-tetrahydro-5H-pyrimido[4,5-b][1,4]diazepin-2-ylamino)-3-methoxy-benzamide] had a 50% inhibitory concentration (IC50) of 51 to 500 nM.

The record behind these values is patent US8003785B2 (Takeda Pharmaceutical Company Limited, priority 2008, dated 2011).
